From article PMC3480424, “The Metagenome-Derived Enzymes LipS and LipT Increase the Diversity of Known Lipases” (PLoS ONE, 2012)

Columns and labels:
LipT = biological target: T1, LipT (uncultured bacterium, UniProt K7QE48); test: spectrophotometric 4-nitrophenol release at […] nm; format: biochemical; conditions: 75°C, 0.1 M potassium phosphate pH 8.0
T1 construct: full ORF of 331 residues incl. predicted signal peptide (cleavage Ala21/Val22), C-terminal His6 (pET21a), E. coli BL21(DE3), Ni-NTA; about 36 kDa monomer, multimer (at least dimer)
T1 sequence (K7QE48 1-328 limits assumed): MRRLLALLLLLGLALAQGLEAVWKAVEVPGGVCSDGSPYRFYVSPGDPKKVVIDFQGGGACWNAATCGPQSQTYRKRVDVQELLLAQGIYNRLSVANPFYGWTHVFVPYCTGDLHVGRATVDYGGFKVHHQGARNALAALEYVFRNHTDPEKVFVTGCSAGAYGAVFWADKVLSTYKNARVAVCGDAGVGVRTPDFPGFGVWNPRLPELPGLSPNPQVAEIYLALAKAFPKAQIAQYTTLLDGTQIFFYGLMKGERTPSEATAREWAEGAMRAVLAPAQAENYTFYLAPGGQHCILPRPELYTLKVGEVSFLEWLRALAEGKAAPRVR

LipS = biological target: T2, LipS (Symbiobacterium thermophilum, UniProt Q67MR3); test: pNP-decanoate hydrolysis, spectrophotometric at […] nm; format: biochemical; conditions: pNP-decanoate as substrate, 5 min preincubation, 70°C, 10 min
T2 construct: gene STH2045; full-length, 280 residues, C-terminal His6 (pET21a), E. coli BL21(DE3), Ni-NTA; dimer by SEC
T2 sequence (Q67MR3 entry or part of it): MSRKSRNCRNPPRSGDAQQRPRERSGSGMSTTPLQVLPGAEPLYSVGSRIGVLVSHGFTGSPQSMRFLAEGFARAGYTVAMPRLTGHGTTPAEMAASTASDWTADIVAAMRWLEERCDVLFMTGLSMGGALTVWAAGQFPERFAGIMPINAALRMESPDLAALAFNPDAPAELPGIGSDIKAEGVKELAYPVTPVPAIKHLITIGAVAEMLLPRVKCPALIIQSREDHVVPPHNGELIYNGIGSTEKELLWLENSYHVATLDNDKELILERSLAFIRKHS

[1] = test system: T3, LipS-WT (uncultured bacterium); test: X-ray crystal structure, […] Å; format: binding; conditions: active site next to S126 and H257, contact to D187; spermidine was added as crystallisation additive, residual density interpreted as spermidine; PDB code assigned by order of listing
T3 construct: crystallization construct LipS-WT with native N-terminus (disordered to about residue 35); space group P4, 4 molecules per asymmetric unit; dimer

[2] = biological target: LipS with His6-tag at the C-terminus (LipS-H6) (metagenome-derived (100% identity to Symbiobacterium thermophilum)); test: SEC; size exclusion chromatography during purification of LipS for crystallization; conditions not told (ref. 67)
[3] = biological target: LipT (metagenome-derived (97% identity to Thermus scotoductus)); test: SDS-PAGE after incomplete heat denaturation; 15% SDS-PAGE of purified LipT after 5 min at 95°C, Coomassie staining
[4] = biological target: wild-type LipS (LipS-WT) (metagenome-derived (100% identity to Symbiobacterium thermophilum)); test: SEC; size exclusion chromatography during purification of LipS for crystallization; conditions not told (ref. 67)

CCCCCCCCCC(=O)Oc1ccc([N+](=O)[O-])cc1 [4-nitrophenol-decanoate (C10)]
Km (mol l^-1) (LipT): 1.1 • 10^−3 mol l^−1

NCCCCNCCCN [spermidine]
inhibition at 3 and 5 mM (LipS): shown to inhibit the activity of LipS with its substrate pNP-decanoate | X-ray crystal structure, 1.99 Å [1]: Spermidine was used as an additive to improve crystal quality

LipS with His6-tag at the C-terminus (LipS-H6) (enzyme)
stoichiometry N [2]: 2

LipT (enzyme)
stoichiometry N [3]: > 2

wild-type LipS (LipS-WT) (enzyme)
stoichiometry N [4]: 2
